# Results published in ChEMBL document CHEMBL1157527 (2008).
# System: Candida albicans
# Assay: Antifungal activity against Candida albicans; note: unit not given here
# Assay type: functional
row,Compound,p(1/MIC)
1,C[N+](C)(C)[BH2-]C#N [(CYANOBORANYLIDENE)TRIMETHYLAMINE],3.708
2,CCCCCCCCCCCCCCC[N+](C)(C)[BH2-]C#N,1.724
3,CCCCCCCCCCCC[N+](C)(C)[BH2-]C#N [(CYANOBORANYLIDENE)(DODECYL)DIMETHYLAMINE],1.785
4,O=C(Nc1ccc2oc(-c3ccc(F)cc3)nc2c1)OCc1ccc(Cl)cc1,1.806
5,CCCCCCCCCCCCC[N+](C)(C)[BH2-]C#N,1.763
6,CCCCCCCCCCC[N+](C)(C)[B-](Br)(Br)C#N,1.591
7,CCCCCCC(C)(O)C[N+](C)(C)[BH2-]C#N (stereo unspecified),3.344
8,Clc1ccc(Cn2cc(Cn3ccnc3)c3ccccc32)c(Cl)c1,1.147
9,O=C(Nc1ccc2oc(-c3ccc(F)cc3)nc2c1)OCc1ccccc1,1.785
10,CCCC(Br)C(=O)OC(Cn1cncn1)(Cn1cncn1)c1ccc(F)cc1F (stereo unspecified),2.768
11,O=C(OCCCl)OC(Cn1cncn1)(Cn1cncn1)c1ccc(F)cc1F,3.374
12,O=C(Nc1ccc2oc(-c3ccc(F)cc3)nc2c1)SCc1ccccc1,1.813
13,CCCCCCCCCCCOP(=O)(O)OC(Cn1cncn1)(Cn1cncn1)c1ccc(F)cc1F,3.148
14,O=P(O)(OCCCCCCCCCCCBr)OC(Cn1cncn1)(Cn1cncn1)c1ccc(F)cc1F,3.377
15,CC[N+](C)(C)[BH2-]C#N [(CYANOBORANYLIDENE)(ETHYL)DIMETHYLAMINE],3.649
16,CCCCCCCCCCCCCC(=O)OC(Cn1cncn1)(Cn1cncn1)c1ccc(F)cc1F,3.143
17,C[N+](C)([BH2-]C#N)CC1(O)C=CCC1 (stereo unspecified),3.142
18,C[N+](C)([BH2-]C#N)CC(O)c1ccccc1 (stereo unspecified),2.389
19,CCCCC[N+](C)(C)[BH2-]C#N [(CYANOBORANYLIDENE)DIMETHYLPENTYLAMINE],2.909
20,CC(C)C(c1cn(Cc2ccc(Cl)cc2)c2ccccc12)n1ccnc1 (stereo unspecified),1.138
21,Cc1c(C(C)n2ccnc2)c2ccccc2n1Cc1ccc(Br)cc1 (stereo unspecified),2.404
22,CCCCCCCCC[N+](C)(C)[BH2-]C#N [(CYANOBORANYLIDENE)DIMETHYLNONYLAMINE],2.176
23,CCCCCCCCCCCCCCOP(=O)(O)OC(Cn1cncn1)(Cn1cncn1)c1ccc(F)cc1F,3.208
24,CCCCCCCCCCCOP(=O)(OC)OC(Cn1cncn1)(Cn1cncn1)c1ccc(F)cc1F (stereo unspecified),3.138
25,C[N+](C)([BH2-]C#N)C[Si](C)(C)C [(CYANOBORANYLIDENE)DIMETHYL[(TRIMETHYLSILYL)METHYL]AMINE],3.468
26,CC(=O)Oc1ccccc1C(=O)OC(Cn1cncn1)(Cn1cncn1)c1ccc(F)cc1F,3.413

row,Compound,p(1/MIC)
1,C[N+](C)([BH2-]C(=O)O)CCCCCCCCCC[N+](C)(C)[BH2-]C(=O)O,2.274
2,C=CCCCC[N+](C)(C)[BH2-]C#N,1.973
3,CCC(Br)C(=O)OC(Cn1cncn1)(Cn1cncn1)c1ccc(F)cc1F (stereo unspecified),2.846
4,C[N+](C)([BH2-]C#N)CCCCCCCCCC[N+](C)(C)[BH2-]C#N,2.611
5,Cc1c(Cn2ccnc2)c2ccccc2n1Cc1ccc(Cl)cc1,0.474
6,CCCCCCCCOP(=O)(OCCC#N)OC(Cn1cncn1)(Cn1cncn1)c1ccc(F)cc1F (stereo unspecified),3.091
7,C[N+](C)(CCCCCCCCCC[N+](C)(C)[B-](Br)(Br)C#N)[B-](Br)(Br)C#N,2.017
8,CCCC[N+](C)(C)[BH2-]C#N [BUTYL(CYANOBORANYLIDENE)DIMETHYLAMINE],3.553
9,Cc1c(Cn2ccnc2)c2ccccc2n1Cc1cc(Cl)ccc1Cl,1.432
10,CCCCCCCCCC(O)C[N+](C)(C)[BH2-]C#N (stereo unspecified),2.692
11,CN(C)c1ccc(-c2nc3cc(NC(=O)OCc4ccc(Cl)cc4)ccc3o2)cc1,1.875
12,O=C(OC(Cn1cncn1)(Cn1cncn1)c1ccc(F)cc1F)C(Br)CCCCCCCCCCBr (stereo unspecified),1.342
13,C[N+](C)(C)[B-](Br)(Br)C#N,3.295
14,CCCCCCCCCCC[N+](C)(C)[BH2-]C#N,1.512
15,C[N+](C)(CCCCCCCCCC[N+](C)(C)[BH-](Br)C#N)[BH-](Br)C#N (stereo unspecified),2.146
16,Cc1c(Cn2ccnc2)c2cc(Br)ccc2n1Cc1ccccc1F,2.415
17,Cc1c(C(C)n2ccnc2)c2ccccc2n1Cc1ccc(F)cc1 (stereo unspecified),1.819
18,CCCCCCCCOP(=O)(OC)OC(Cn1cncn1)(Cn1cncn1)c1ccc(F)cc1F (stereo unspecified),2.962
19,CCCCCCC(Br)C(=O)OC(Cn1cncn1)(Cn1cncn1)c1ccc(F)cc1F (stereo unspecified),1.431
20,C=CCCCCCCCCCOP(=O)(O)OC(Cn1cncn1)(Cn1cncn1)c1ccc(F)cc1F,3.445
21,C[N+](C)([BH2-]C#N)CCCCCCCCCCCC[N+](C)(C)[BH2-]C#N,1.982
22,C=CCC[N+](C)(C)[BH2-]C#N,2.672
23,CCc1ccc(-c2nc3cc(NC(=O)SCc4ccccc4)ccc3o2)cc1,2.161
24,Cc1c(Cn2ccnc2)c2cc(Br)ccc2n1Cc1ccc(Cl)cc1,1.902
25,O=C(Nc1ccc2oc(-c3ccccc3)nc2c1)OCc1ccccc1,1.505

# Other lines, results leading:
row,p(1/MIC),Compound
1,2.494,CCCCCCCCCCCOP(=O)(OCCC#N)OC(Cn1cncn1)(Cn1cncn1)c1ccc(F)cc1F (stereo unspecified)
2,3.392,N#CCCOP(=O)(OCCCCCCCCCCCBr)OC(Cn1cncn1)(Cn1cncn1)c1ccc(F)cc1F (stereo unspecified)
3,2.616,C=CCCCCCCCCCOP(=O)(OC)OC(Cn1cncn1)(Cn1cncn1)c1ccc(F)cc1F (stereo unspecified)
4,2.1,O=C(Nc1ccc2oc(-c3ccc(F)cc3)nc2c1)c1ccccc1
5,1.532,O=C(Cc1ccc([N+](=O)[O-])cc1)Nc1ccc2oc(-c3ccc(F)cc3)nc2c1
6,1.806,CCCCCCCCCCC[N+](C)(C)[BH-](F)C#N (stereo unspecified)
7,2.314,C=CCCCCCCCCCOP(=O)(OCCC#N)OC(Cn1cncn1)(Cn1cncn1)c1ccc(F)cc1F (stereo unspecified)
8,1.69,CCCCCCCCCCC[N+](C)(C)[BH-](Br)C#N (stereo unspecified)
9,2.397,Cc1c(Cn2ccnc2)c2cc(Br)ccc2n1Cc1ccccc1Cl
10,2.1,CCCCC(Br)C(=O)OC(Cn1cncn1)(Cn1cncn1)c1ccc(F)cc1F (stereo unspecified)
11,1.813,CCc1ccc(-c2nc3cc(NC(=O)CCc4ccccc4)ccc3o2)cc1
12,1.839,O=C(Nc1ccc2oc(-c3ccccc3)nc2c1)SCc1ccccc1
13,1.117,Fc1ccc(Cn2cc(Cn3ccnc3)c3ccccc32)cc1
14,1.477,CCc1ccc(-c2nc3cc(NC(=O)OCc4ccccc4)ccc3o2)cc1
15,1.924,Clc1ccc(Cn2cc(Cn3ccnc3)c3ccccc32)cc1
16,1.208,CC(C)(C)C(c1cn(Cc2ccc(Cl)cc2)c2ccccc12)n1ccnc1 (stereo unspecified)
17,2.415,Cc1c(Cn2ccnc2)c2cc(Br)ccc2n1Cc1ccc(F)cc1
18,2.496,Cc1c(Cn2ccnc2)c2ccccc2n1Cc1ccc(F)cc1
19,1.82,CN(C)c1ccc(-c2nc3cc(NC(=O)CCc4ccccc4)ccc3o2)cc1
20,1.695,Fc1ccc(Cn2cc(Cn3ccnc3)c3ccccc32)c(F)c1
21,1.82,O=C(Cc1ccccc1)Nc1ccc2oc(-c3ccc(F)cc3)nc2c1
22,3.61,CC(=O)OC(Cn1cncn1)(Cn1cncn1)c1ccc(F)cc1F
23,1.792,CCc1ccc(-c2nc3cc(NC(=O)OCc4ccc(Cl)cc4)ccc3o2)cc1
24,3.412,CCCCCCCCCCC(Br)C(=O)OC(Cn1cncn1)(Cn1cncn1)c1ccc(F)cc1F (stereo unspecified)
25,2.143,CN(C)c1ccc(-c2nc3cc(NC(=O)OCc4ccccc4)ccc3o2)cc1
26,1.634,C[N+](C)([BH2-]C#N)CCCCCCCCCCCCCC[N+](C)(C)[BH2-]C#N
27,2.127,O=C(CCc1ccccc1)Nc1ccc2oc(-c3ccc(F)cc3)nc2c1
28,1.544,O=C(Nc1ccc2oc(-c3ccccc3)nc2c1)OCc1ccc(Cl)cc1
29,3.172,CC(Br)C(=O)OC(Cn1cncn1)(Cn1cncn1)c1ccc(F)cc1F (stereo unspecified)
30,3.17,CCCCCCCCCCCCCCOP(=O)(OCCC#N)OC(Cn1cncn1)(Cn1cncn1)c1ccc(F)cc1F (stereo unspecified)
